Reference: patent US20150359884A1, “MULTI-PHOTON ISOMERISATION OF COMBRETASTATINS AND THEIR USE IN THERAPY” (priority 2011, published 2015)

Experiments:
[1] = system: Chinese hamster ovary (CHO) cells; experiment: Fluorescence lifetime imaging (FLIM) of uptake and intracellular concentration in CHO cells
Experimental: Both HeLa and Chinese hamster ovary (CHO) cells were obtained from the European Collection of Cell Cultures. HeLa cells were cultured in MEM medium (Gibco) containing 10% foetal calf serum, penicillin (100 units/mL), streptomycin (100 μg/mL) and glutamine (2 mM). CHO cells were cultured in DMEM (Gibco) with the same additions as for the HeLa cells. For microscopy the adherent cell cultures were grown in 35 mm diameter glass-bottom culture dishes with optical quality glass (MatTek Corporation) and incubated at 37° C. in a humidified atmosphere containing 5% CO2. Human umbilical vein endothelial cells (HUVECs) were obtained from TCS Cellworks. […]
The fluorescence lifetime imaging system with multiphoton excitation employed lasers for multiphoton excitation consisting of a Ti:Sapphire laser, tuneable between 700 and 1000 nm and providing ca 180 fs pulses at 76 MHz, and an optical parametric oscillator (OPO) pumped by a second Ti:Sapphire laser source. […] Using the various microscope ports it was possible to record the fluorescence in a number of ways. The fluorescence signal at one port was relayed to a spectrometer (Acton 275) and CCD setup (Andor iDUS) so that emission spectra and intensities could be recorded. […] In FLIM mode the fluorescence was isolated by a suitable narrowband interference filter (400IU25 together with BG3 (Comar)). […]

[2] = Fluorescence lifetimes in solvents, two-photon excitation with TCSPC; type: physicochemical; details: for Fluorescence lifetime τ: 20° C., two-photon excitation 620-630 nm
Experimental: Fluorescence lifetimes were determined using 2PE at 630 nm with the microscope TCSPC setup (overall time response of 25 ps fwhm) and produced the results shown in Table 1. […] Characterisation of the spectroscopic properties of these latter two compounds remains to be investigated further. […] In the very viscous environment provided by glycerol the lifetime increases further to 1180 ps. In the range of alkanols studied the lifetime is closely correlated with solvent viscosity as shown in the inset to FIG. 3. […] However it is clear that the measured lifetime has the potential to report on cellular environments in FLIM studies. For E-CA4F similar trends are observed, but the overall differences in both lifetimes and quantum yields over the range of solvents are rather less than for E-CA4. The fluorescence lifetimes of E-CA4F are confined to a narrower range having values ranging from 440 ps in methanol through 740 ps in hexane to 1070 ps in glycerol. The more pronounced solvent dependence for E-CA4 no doubt reflects the more polar nature of the molecule compared with E-CA4F. The relative polarities may be judged from the partition coefficients (P) calculated according to the method of Brown et al..

## COc1ccc(/C=C/c2cc(OC)c(OC)c(OC)c2)cc1O [E-CA4, (E)-1-(3′,4′,5′-Trimethoxyphenyl)-2-(4″-methoxy-3″-hydroxy-phenyl)ethene]
[1]; 10 μM in the medium
  Concentrating of the drug, factor relative to the surrounding medium: 25-75 times
[1]; 10 μmol dm^−3, 2PE 628 nm
  Intracellular distribution: located mainly within the cytoplasmic region of the cell
[2]; DCM, ne = non-exponential
  Fluorescence lifetime τ: 0.50 ns
[2]; DMSO
  Fluorescence lifetime τ: 0.49 ns
[2]; EtOH, ne = non-exponential
  Fluorescence lifetime τ: 0.28 ns
[2]; Ethylene glycol, ne = non-exponential
  Fluorescence lifetime τ: 0.58 ns
[2]; Glycerol, ne = non-exponential
  Fluorescence lifetime τ: 1.18 ns
[2]; Hexane
  Fluorescence lifetime τ: 0.86 ns
[2]; MeCN, ne = non-exponential
  Fluorescence lifetime τ: 0.29 ns
[2]; MeOH, ne = non-exponential
  Fluorescence lifetime τ: 0.23 ns
[2]; acetonitrile
  Fluorescence lifetime: around 220 ps
[2]; as shown in FIG. 10, compared with TRIR in dichloromethane
  Fluorescence lifetime: 500 ps
[2]; glycerol
  Fluorescence lifetime: 1180 ps
[2]; hexane
  Fluorescence lifetime: 855 ps
